Experiments:
[1] = Pharmacokinetics in rats according to deuterium substitution; format: in vivo; conditions: male rats, oral 10 mg/kg; for concentration at 0.5 h / concentration at 1 h / concentration at 2 h / concentration at 5 h / concentration at 8 h: Sprague-Dawley, rat, plasma, read-out: Blood concentration; for concentration at 0.5 h: 0.5 hr after administration; for concentration at 1 h: 1 hr after administration; for concentration at 2 h: 2 hr after administration; for concentration at 5 h: 5 hr after administration; for concentration at 8 h: 8 hr after administration
Procedure: In order to evaluate the impact on the deuterium substituent in terms of pharmacokinetics, the blood concentrations of Example 35 and Comparative Example 2 in rats were measured and compared. Six male rats (Sprague-Dawley Rats) were obtained, acclimatized, and then distributed into two groups with three rats per test group. As feed, irradiated solid feed was allowed to be freely consumed, and, as water, tap water disinfected with an ultraviolet sterilizer and micro-filtration device was placed in a polycarbonate drinking bottle and allowed to be freely consumed. Rats were raised in an animal breeding area maintained at a temperature of 23±3° C., with a relative humidity of 50±20%, a ventilation frequency of 10 to 15 times/hr, for a lighting time of 12 hours (lights on at 8 a.m. to lights off at 8 p.m.), and with an illuminance of 150 to 300 Lux.
Blood samples were obtained from the jugular vein at 0.5, 1, 2, 5, and 8 hours after drug administration, respectively. Blood samples were centrifuged (2 to 8° C., 3,200 g, 10 minutes) to obtain plasma. The amount of administered compound into the plasma sample was quantified by using LC-MS/MS.

[2] = test system: rats (Sprague-Dawley Rats); assay: Acute oral toxicity in rats; format: in vivo; conditions: female rats
Description: An attempt was made to evaluate the acute toxicity of the compound of Example 7 on the fumarate form (Example 41). Twenty female rats (Sprague-Dawley Rats) were obtained, acclimatized, and distributed into a total of four groups, five rats per test group. As feed, irradiated solid feed was allowed to be freely consumed, and, as water, tap water disinfected with an ultraviolet sterilizer and micro-filtration device was placed in a polycarbonate drinking bottle and allowed to be freely consumed. Rats were raised in an animal breeding area maintained at a temperature of 23±3° C., with a relative humidity of 50±20%, a ventilation frequency of 10 to 15 times/hr, for a lighting time of 12 hours (lights on at 8 a.m. to lights off at 8 p.m.), and with an illuminance of 150 to 300 Lux. As the administration, oral administration, the clinically planned route, was selected for evaluation, and, as the administration dose, the highest dose was set at 600 mg/kg, referring to the results of vonoprazan.

Row | Structure (SMILES) | concentration at 0.5 h [1] [ng/mL] | concentration at 1 h [1] [ng/mL] | concentration at 2 h [1] [ng/mL] | concentration at 5 h [1] [ng/mL] | concentration at 8 h [1] [ng/mL] | blood concentration level higher as compared to Comparative Example 2 ([1]; 0.5 hours after administration) [times] | blood concentration level higher as compared to Comparative Example 2 ([1]; after 1 hour) | blood concentration level higher as compared to Comparative Example 2 ([1]; after 2 hours) | Survival rate (%) ([2]; single oral dose 50 mg/kg) | Survival rate (%) ([2]; single oral dose 200 mg/kg) | Survival rate (%) ([2]; single oral dose 400 mg/kg) | Survival rate (%) ([2]; single oral dose 600 mg/kg)
1 | CNCc1cn(S(=O)(=O)c2cccnc2)c(-c2ccc(F)cc2F)c1OC [Comparative Example 2, reference compound] | 59.7 | 116 | 83.8 | 12.8 | 5.1 |  |  |  |  |  |  | 
2 | [2H]C([2H])([2H])NCc1cn(S(=O)(=O)c2cccnc2)c(-c2ccc(F)cc2F)c1OC [Example 35, N-((5-(2,4-difluorophenyl)-4-methoxy-1-(pyridin-3-ylsulfonyl)-1H-pyrrol-3-yl)methyl)methan-d3-amine] | 302 | 254 | 199 | 22.6 | 4.8 | 5 | at least 2 times | at least 2 times |  |  |  | 
3 | O=C(O)/C=C/C(=O)O.[2H]C([2H])([2H])NCc1cc(-c2ccccc2F)n(S(=O)(=O)c2ccc(F)cc2)c1 [Example 41, N-((5-(2-fluorophenyl)-1-((4-fluorophenyl)sulfonyl)-1H-pyrrol-3-yl)methyl)methane-d3-amine Fumarate] |  |  |  |  |  |  |  |  | 100 | 100 | 100 | 0

Source: patent US20250051275A1, “PYRROLE DERIVATIVE OR PHARMACEUTICALLY OR SITOLOGICALLY ACCEPTABLE SALTS THEREOF, AND COMPOSITION FOR PREVENTION, AMELIORATION OR TREATMENT OF GASTROINTESTINAL DISORDERS COMPRISING SAME AS ACTIVE INGREDIENT” (HANA PHARM CO., LTD., priority 2021, published 2025)
